Experimental data from PMC9074662, “Discovery of dihydrooxazolo[2,3-a]isoquinoliniums as highly specific inhibitors of hCE2” (RSC Advances, 2019).
Several values for one entry are separate records, joined by “and”; a condition that tells them apart may be missing. Equal values may be shown once.

Experiments:
hCE2 = biological target: T1, hCE2 (Homo sapiens, UniProt O00748); experiment: hCE2 inhibition assay (FD hydrolysis in human liver microsomes); format: biochemical; conditions: for IC50: FD probe substrate (5 μM), HLM, PBS pH 7.4, 37 °C; for Selectivity IC50(hCE1)/IC50(hCE2): ratio of IC50 values, hCE2 over hCE1 selectivity (fold)
T1 construct: tissue Bioreclamation IVT lot no; X008067; host or cells: pooled human liver microsomes, 50 donors
T1 sequence (O00748 27-559): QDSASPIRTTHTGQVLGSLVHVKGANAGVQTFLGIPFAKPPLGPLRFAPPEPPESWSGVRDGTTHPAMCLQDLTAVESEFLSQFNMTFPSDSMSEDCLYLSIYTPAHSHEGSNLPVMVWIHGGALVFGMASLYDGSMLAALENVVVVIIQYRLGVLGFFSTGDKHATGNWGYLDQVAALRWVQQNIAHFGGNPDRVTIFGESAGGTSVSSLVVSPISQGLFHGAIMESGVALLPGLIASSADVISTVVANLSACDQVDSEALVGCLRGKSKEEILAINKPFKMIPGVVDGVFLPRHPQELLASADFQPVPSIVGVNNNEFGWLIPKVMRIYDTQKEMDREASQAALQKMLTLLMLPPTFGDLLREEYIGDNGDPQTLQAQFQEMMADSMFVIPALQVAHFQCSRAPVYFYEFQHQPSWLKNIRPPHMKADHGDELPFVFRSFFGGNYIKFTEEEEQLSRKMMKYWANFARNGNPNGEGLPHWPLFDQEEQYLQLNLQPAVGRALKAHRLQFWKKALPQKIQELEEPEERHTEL
Procedure: In brief, 200 μL incubation mixture containing 0.1 M PBS (PH = 7.4), human liver microsomes (2 μg mL^−1, final concentration) and each inhibitor. […] After incubating for 30 min at 37 °C in a shaking bath, the reaction was stopped by the addition of acetonitrile (200 μL). The chemical structure of FD and its hydrolytic metabolite (fluorescein), as well as the detection conditions for fluorescein are depicted in Table S1. ^† The negative control incubation (DMSO only) was also carried out under the same conditions.[42] The residual activity was calculated using the formula mentioned above in hCE1 inhibition assay.

hCE1 = biological target: T2, hCE1 (Homo sapiens, UniProt P23141); experiment: hCE1 inhibition assay (DME hydrolysis in human liver microsomes); format: biochemical; conditions: DME probe substrate (3 μM), HLM, PBS pH 6.8, 37 °C
T2 construct: tissue Bioreclamation IVT lot no; X008067; host or cells: pooled human liver microsomes, 50 donors
T2 sequence (P23141 18-567): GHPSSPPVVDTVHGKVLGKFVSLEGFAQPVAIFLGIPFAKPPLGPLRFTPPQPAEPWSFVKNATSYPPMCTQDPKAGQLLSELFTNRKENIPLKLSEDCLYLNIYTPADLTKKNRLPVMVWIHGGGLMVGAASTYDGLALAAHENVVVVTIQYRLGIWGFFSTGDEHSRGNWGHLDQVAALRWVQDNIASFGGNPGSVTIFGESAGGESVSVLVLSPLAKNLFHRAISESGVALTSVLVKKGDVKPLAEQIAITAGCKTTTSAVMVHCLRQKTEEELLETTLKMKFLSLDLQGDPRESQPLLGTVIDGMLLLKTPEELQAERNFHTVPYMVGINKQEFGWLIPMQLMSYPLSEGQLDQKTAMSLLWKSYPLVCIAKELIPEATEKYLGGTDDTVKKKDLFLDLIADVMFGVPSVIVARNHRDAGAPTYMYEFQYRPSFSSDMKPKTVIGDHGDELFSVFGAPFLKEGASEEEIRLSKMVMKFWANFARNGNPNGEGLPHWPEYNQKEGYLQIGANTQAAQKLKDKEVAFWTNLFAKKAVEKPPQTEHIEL
Excerpt: We designed and synthesized more than 30 derivatives of DCZ0358. However, the five-ring quaternary ammonium component of some derivatives was unstable to decompose easily into its hydrolyzate 23b. With 12 stable compounds in hand, we conducted experiments to assay inhibitory activities against both hCE1 and hCE2 using a panel of fluorescent probe substrates.[33–36]D-Luciferin methyl ester (DME) was used as a probe substrate, and nevadensin (a specific hCE1 inhibitor) was used as a positive inhibitor control for hCE1. […] DME was used as a probe substrate for evaluating the inhibitory effects of all DCZ0358 derivatives on hCE1, while nevadensin (a specific hCE1 inhibitor) was used as a positive control.[39] Briefly, 100 μL incubation mixture containing 91 μL PBS (pH 6.8), 2 μL inhibitor at different concentrations and 5 μL HLM (1 μg mL^−1, final concentration), were pre-incubated at 37 °C for 10 min. Subsequently, 2 μL DME (3 μM final concentration, close to the Km value of DME in HLM) was added to initiate the reaction. After incubating for 10 min at 37 °C in a shaking bath, the reaction was stopped by the addition of LDR (100 μL). The microplate reader (SpectraMax® iD3, Molecular Devices, Austria) was used for luminescence measurements. The gain value of luminescence detection was set at 140 volts, and the integration time was set at 1 s. The chemical structure of DME and its hydrolytic metabolite (D-luciferin), as well as the detection conditions for D-luciferin are depicted in Table S1. ^† The negative control incubation (DMSO only) was carried out under the same conditions. The residual activity was calculated using the following formula, the residual activity (%) = (the florescence intensity in the presence of inhibitor)/the florescence intensity in negative control × 100%. The residual activities are show in Fig. S1. ^†

intracellular hCE2 = biological target: T3, intracellular hCE2 (Homo sapiens, UniProt O00748); experiment: Inhibition of intracellular hCE2 in living HepG2 cells (NCEN hydrolysis, fluorescence imaging); format: cell-based
T3 construct: endogenous in cells; host or cells: HepG2
T3 sequence (O00748 27-559): T1 sequence (O00748 27-559)
Procedure: In view of that hCE2 was an intracellular enzyme, the inhibition potential of 23o was investigated in living HepG2 cells. The HepG2 cells were cultured in Modified Eagle's Medium (MEM) with 5% CO2 and 0.1% antibiotic–antimycoticmix antibiotic at 37 °C, supplemented with 10% fetal bovine serum (FBS) and used NCEN as substrate probe to assay the 23o inhibition potential toward hCE2.
For fluorescence imaging, HepG2 cells were seeded in 96-well plates (8000 cells per well) with complete medium and then incubated for 24 hours. Afterwards, the cells were washed twice with FBS-free culture medium and then preincubated in the medium containing 23o (prepared in FBS-free at various concentrations) for 30 min with 5% CO2 at 37 °C. HepG2 cells were then co-incubated with NCEN (final concentration, 10 μM) for another 50 min to assess the intracellular hCE2 function, respectively. The living cells were imaged and analyzed using an ImageXpress® Micro Confocal High-Content Imaging system (Molecular Devices, Austria).

Structure (SMILES) | IC50 (hCE2) [µM] | Selectivity IC50(hCE1)/IC50(hCE2) (hCE2) | IC50 (hCE1) [µM] | Ki (hCE2; Lineweaver-Burk plots, FD substrate, read-out: Ki against hCE2-mediated FD hydrolysis) | Inhibition mode against hCE2-mediated FD hydrolysis (hCE2; inhibition kinetics, FD substrate) | IC50 (intracellular hCE2; HepG2 cells, NCEN 10 μM substrate, read-out: IC50 against intracellular hCE2 in living HepG2 cells) [µM] | Inhibition of intracellular hCE2-mediated NCEN hydrolysis (fluorescence intensity, green channel) (intracellular hCE2; living HepG2 cells, 0-20 μM, NCEN 10 μM, 50 min)
COc1ccc2cc(-c3ccc4c(c3)OCO4)n(C(CO)OC)c(=O)c2c1OC (centres unmarked) [Compound 23b] | 41.7 ± 18.1 | >0.88 | 36.8 ± 7.7 |  |  |  | 
COC(=O)c1ccc(COc2cc(-c3cc4ccc(OC)c(OC)c4c4[n+]3C(OC)CO4)ccc2OC)cc1 (centres unmarked) [Compound 23f, 3,9,10-Trimethoxy-5-(4-methoxy-3-((4-(methoxycarbonyl)benzyl)oxy)phenyl)-2,3-dihydrooxazolo[2,3-a]isoquinolin-4-ium] | 5.73 ± 0.79 | >17.46 | > 100 |  |  |  | 
COc1ccc(-c2cc3ccc(OC)c(OC)c3c3[n+]2C(OC)CO3)cc1OCc1ccc(C#N)cc1 (centres unmarked) [Compound 23g, 5-(3-((4-Cyanobenzyl)oxy)-4-methoxyphenyl)-3,9,10-trimethoxy-2,3-dihydrooxazolo[2,3-a]isoquinolin-4-ium] | 3.33 ± 0.32 | >30.07 | > 100 |  |  |  | 
COc1ccc(-c2cc3ccc(OC)c(OC)c3c3[n+]2C(OC)CO3)cc1OCc1ccc(C)cc1 (centres unmarked) [Compound 23k, 3,9,10-Trimethoxy-5-(4-methoxy-3-((4-methylbenzyl)oxy)phenyl)-2,3-dihydrooxazolo[2,3-a]isoquinolin-4-ium] | 5.58 ± 0.94 | >17.94 | > 100 |  |  |  | 
COc1ccc(-c2cc3ccc(OC)c(OC)c3c3[n+]2C(OC)CO3)cc1OCc1ccc(-c2ccccc2)cc1 (centres unmarked) [Compound 23l, 5-(3-([1,1′-Biphenyl]-4-ylmethoxy)-4-methoxyphenyl)-3,9,10-trimethoxy-2,3-dihydrooxazolo[2,3-a]isoquinolin-4-ium] | 2.64 ± 0.45 | >37.89 | > 100 |  |  |  | 
COc1cc(COc2cc(-c3cc4ccc(OC)c(OC)c4c4[n+]3C(OC)CO4)ccc2OC)cc(OC)c1 (centres unmarked) [Compound 23o, 5-(3-((3,5-Dimethoxybenzyl)oxy)-4-methoxyphenyl)-3,9,10-trimethoxy-2,3-dihydrooxazolo[2,3-a]isoquinolin-4-ium] | 1.19 | >83.89 | > 100 | 0.84 µM and 0.843 µM | mixed inhibitor | 2.29 | strongly inhibit
COc1ccc(-c2cc(=O)c3c(O)c(OC)c(O)c(OC)c3o2)cc1 [Nevadensin, reference compound] |  |  | 2.64 ± 0.22 |  |  |  | 

Results, then the molecule that gave them:

IC50 (hCE2) [µM] | Selectivity IC50(hCE1)/IC50(hCE2) (hCE2) | IC50 (hCE1) [µM] | Ki (hCE2; Lineweaver-Burk plots, FD substrate, read-out: Ki against hCE2-mediated FD hydrolysis) | Inhibition mode against hCE2-mediated FD hydrolysis (hCE2; inhibition kinetics, FD substrate) | IC50 (intracellular hCE2; HepG2 cells, NCEN 10 μM substrate, read-out: IC50 against intracellular hCE2 in living HepG2 cells) [µM] | Inhibition of intracellular hCE2-mediated NCEN hydrolysis (fluorescence intensity, green channel) (intracellular hCE2; living HepG2 cells, 0-20 μM, NCEN 10 μM, 50 min) | Structure (SMILES)
16 ± 1.49 | >0.25 | 4.04 ± 0.4 |  |  |  |  | COc1ccc2cc(-c3ccc4c(c3)OCO4)[n+]3c(c2c1OC)OCC3OC (centres unmarked) [Compound 23a]
6.89 | >14.52 | > 100 |  |  |  |  | COc1ccc(COc2cc(-c3cc4ccc(OC)c(OC)c4c4[n+]3C(OC)CO4)ccc2OC)cc1 (centres unmarked) [Compound 23d, 3,9,10-trimethoxy-5-(4-methoxy-3-((4-methoxybenzyl)oxy)phenyl)-2,3-dihydrooxazolo[2,3-a]isoquinolin-4-ium]
11.5 ± 1.76 | >8.72 | > 100 |  |  |  |  | COc1ccc(-c2cc3ccc(OC)c(OC)c3c3[n+]2C(OC)CO3)cc1OCc1ccc(S(C)(=O)=O)cc1 (centres unmarked) [Compound 23e, 3,9,10-Trimethoxy-5-(4-methoxy-3-((4-(methylsulfonyl)benzyl)oxy)phenyl)-2,3-dihydrooxazolo[2,3-a]isoquinolin-4-ium]
3.32 ± 0.87 | >30.14 | > 100 |  |  |  |  | COc1ccc(-c2cc3ccc(OC)c(OC)c3c3[n+]2C(OC)CO3)cc1OCc1ccc([N+](=O)[O-])cc1 (centres unmarked) [Compound 23h, 3,9,10-Trimethoxy-5-(4-methoxy-3-((4-nitrobenzyl)oxy)phenyl)-2,3-dihydrooxazolo[2,3-a]isoquinolin-4-ium]
2.43 ± 0.28 | >41.22 | > 100 |  |  |  |  | COc1ccc(-c2cc3ccc(OC)c(OC)c3c3[n+]2C(OC)CO3)cc1OCc1ccc(C(F)(F)F)cc1 (centres unmarked) [Compound 23i, 3,9,10-Trimethoxy-5-(4-methoxy-3-((4-(trifluoromethyl)benzyl)oxy)phenyl)-2,3-dihydrooxazolo[2,3-a]isoquinolin-4-ium]
3.77 ± 0.25 | >26.51 | > 100 |  |  |  |  | COc1ccc(-c2cc3ccc(OC)c(OC)c3c3[n+]2C(OC)CO3)cc1OCc1ccc2cccnc2c1 (centres unmarked) [Compound 23j, 3,9,10-Trimethoxy-5-(4-methoxy-3-(quinolin-7-ylmethoxy)phenyl)-2,3-dihydrooxazolo[2,3-a]isoquinolin-4-ium]
2.33 ± 0.2 | >42.81 | > 100 |  |  |  |  | COc1ccc(-c2cc3ccc(OC)c(OC)c3c3[n+]2C(OC)CO3)cc1OCc1ccc(C(C)(C)C)cc1 (centres unmarked) [Compound 23m, 5-(3-((4-(tert-Butyl)benzyl)oxy)-4-methoxyphenyl)-3,9,10-trimethoxy-2,3-dihydrooxazolo[2,3-a]isoquinolin-4-ium]
1.66 ± 0.21 | >60.31 | > 100 |  |  |  |  | COc1ccc(-c2cc3ccc(OC)c(OC)c3c3[n+]2C(OC)CO3)cc1OCc1ccc(C(C)C)cc1 (centres unmarked) [Compound 23n, 5-(3-((4-Isopropylbenzyl)oxy)-4-methoxyphenyl)-3,9,10-trimethoxy-2,3-dihydrooxazolo[2,3-a]isoquinolin-4-ium]
